Where a name gives a salt, the structure may show the parent alone.
Target: T1, human calcium receptor (Homo sapiens, UniProt P41180)
T1 construct: expressed in transfected cells
T1 sequence (P41180 20-1078): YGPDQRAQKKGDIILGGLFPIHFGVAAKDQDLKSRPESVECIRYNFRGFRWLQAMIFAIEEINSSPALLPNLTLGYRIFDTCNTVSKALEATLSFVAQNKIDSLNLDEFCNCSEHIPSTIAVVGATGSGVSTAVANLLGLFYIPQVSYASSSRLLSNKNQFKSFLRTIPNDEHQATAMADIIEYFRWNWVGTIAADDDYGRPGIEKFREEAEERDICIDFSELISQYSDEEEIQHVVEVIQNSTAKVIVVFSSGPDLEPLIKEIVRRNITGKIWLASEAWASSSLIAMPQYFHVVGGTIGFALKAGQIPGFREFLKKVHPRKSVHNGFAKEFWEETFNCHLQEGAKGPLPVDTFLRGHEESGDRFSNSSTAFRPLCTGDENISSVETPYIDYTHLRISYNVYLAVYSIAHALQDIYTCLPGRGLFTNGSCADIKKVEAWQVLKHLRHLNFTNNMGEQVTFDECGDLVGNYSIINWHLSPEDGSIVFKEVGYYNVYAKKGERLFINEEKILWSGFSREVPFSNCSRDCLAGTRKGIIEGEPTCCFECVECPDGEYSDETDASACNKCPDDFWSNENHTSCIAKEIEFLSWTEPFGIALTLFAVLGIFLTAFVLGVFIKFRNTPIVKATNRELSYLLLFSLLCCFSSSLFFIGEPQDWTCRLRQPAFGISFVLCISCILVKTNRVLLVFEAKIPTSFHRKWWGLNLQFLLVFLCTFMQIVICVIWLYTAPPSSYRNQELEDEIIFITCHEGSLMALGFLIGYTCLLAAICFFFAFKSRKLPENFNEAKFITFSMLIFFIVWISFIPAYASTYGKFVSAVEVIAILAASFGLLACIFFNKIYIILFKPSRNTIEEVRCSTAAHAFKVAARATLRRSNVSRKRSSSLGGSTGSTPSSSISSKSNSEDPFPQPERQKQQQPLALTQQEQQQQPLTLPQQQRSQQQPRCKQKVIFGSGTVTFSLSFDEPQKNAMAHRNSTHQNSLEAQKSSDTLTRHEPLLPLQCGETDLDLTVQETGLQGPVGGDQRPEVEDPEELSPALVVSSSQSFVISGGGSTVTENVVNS
Test: Calcium Receptor Inhibitor Assay
Type: cell-based
Details: HEK 293 4.0–7 cells stably expressing the human calcium receptor; fluo-3; read-out: IC50 for blocking increases of intracellular Ca2+ elicited by extracellular Ca2+
Method in brief: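 Intracellular Ca^2+ measured with fluo-3 at 37° C in stirred cell suspension. Buffer held 1 mM CaCl2 and 1 mg/mL D-glucose. Compound or vehicle added 90 seconds before extracellular Ca^2+ was raised from 1 to 2 mM, and calcilytic activity scored as concentration-dependent block of the intracellular Ca^2+ rise.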

Row | IC50 | SMILES
1 | < 10 µM | COc1ccc(CC(C)(C)NC[C@@H](O)COc2ccccc2)cc1 (single isomer, unassigned) [Compound 32, (R) or (S)—N-(2-Hydroxy-3-phenoxypropyl)-1,1-dimethyl-2-(4-methoxyphenyl)ethylamine Hydrochloride]
2 | < 1 µM | COc1ccc(CC(C)(C)NCC(O)COc2cccc(OC)c2)cc1 (centres unmarked) [Compound 38, N-[2-Hydroxy-3-(3-methoxyphenoxy)propyl]-1,1-dimethyl-2-(4-methoxyphenyl)ethylamine Hydrochloride]
